Measurements published in publication PMC8373216, “Development and Preclinical Evaluation of New Inhaled Lipoglycopeptides for the Treatment of Persistent Pulmonary Methicillin-Resistant Staphylococcus aureus Infections” (Antimicrobial Agents and Chemotherapy, 2021).
≈ marks a conversion by molar mass, not a printed value. Where two headings read alike, the source gives them in different places.

Columns and labels:
[1] = tested on: Streptococcus dysgalactiae; experiment: Expanded panel broth microdilution MIC/MBC; format: cell-based; conditions: for MIC: Streptococcus dysgalactiae
[2] = tested on: MRSA ATCC BAA 1556 (USA300) biofilm; experiment: MRSA biofilm killing, MBEC assay system, TSB with 1% human plasma
[3] = tested on: Streptococcus constellatus; experiment: Expanded panel broth microdilution MIC; format: cell-based
[4] = tested on: Streptococcus agalactiae; experiment: Expanded panel broth microdilution MIC/MBC; format: cell-based
[5] = tested on: Streptococcus pyogenes; experiment: Expanded panel broth microdilution MIC/MBC; format: cell-based
[6] = tested on: Streptococcus oralis; experiment: Expanded panel broth microdilution MIC; format: cell-based
[7] = tested on: Streptococcus pneumoniae; experiment: Expanded panel broth microdilution MIC/MBC; format: cell-based
[8] = tested on: Streptococcus mitis; experiment: Expanded panel broth microdilution MIC/MBC; format: cell-based; conditions: for MIC: Streptococcus mitis
[9] = tested on: MRSA ATCC BAA 1556 (USA300); experiment: In-house broth microdilution MIC screening; format: cell-based, Staphylococcus aureus; conditions: Staphylococcus aureus, read-out: MIC Value, MRSA ATCC BAA 1556
[10] = tested on: S. aureus; experiment: Expanded panel broth microdilution MIC/MBC; conditions: for MIC: Staphylococcus aureus
[11] = tested on: Streptococcus anginosus; experiment: Expanded panel broth microdilution MIC/MBC; format: cell-based; conditions: for MIC: Streptococcus anginosus
[12] = tested on: Cutibacterium acnes; experiment: Expanded panel broth microdilution MIC; format: cell-based
[13] = tested on: Staphylococcus hominis; experiment: Expanded panel broth microdilution MIC; format: cell-based
[14] = tested on: Clostridium. perfringens; experiment: microbe, parasite or virus in culture; format: cell-based
[15] = tested on: MRSA ATCC BAA 1556 (USA300) biofilm; experiment: Static MRSA biofilm killing, plastic microtiter plate, MEM
[16] = tested on: Enterococcus faecalis; experiment: Expanded panel broth microdilution MIC/MBC; format: cell-based
[17] = Single-dose nebulized nose-only inhalation PK in healthy rats; format: in vivo, rat; conditions: single nebulized nose-only inhaled dose, healthy rats
Summary of the method: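 Ten or eleven rats per cohort dosed once by nebulized nose-only inhalation, delivered dose estimated from 5 min aerosol filter sampling. Lungs and plasma collected from immediately postdose (~30 min) to 168 h; drug quantified by LC-MS/MS after protein precipitation. PK by noncompartmental analysis, linear up/log down.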

[18] = tested on: MSSA ATCC 29213; experiment: In-house broth microdilution MIC screening; format: cell-based; conditions: Staphylococcus aureus, read-out: MIC Value, MSSA ATCC 29213

Which results are given for `CN[C@H](CC(C)C)C(=O)N[C@H]1C(=O)N[C@@H](CC(N)=O)C(=O)N[C@H]2C(=O)N[C@H]3C(=O)N[C@H](C(=O)N[C@H](C(=O)O)c4cc(O)cc(O)c4-c4cc3ccc4O)[C@H](O)c3ccc(c(Cl)c3)Oc3cc2cc(c3O[C@@H]2O[C@H](CO)[C@@H](O)[C@H](O)[C@H]2O[C@H]2C[C@](C)(N)[C@H](O)[C@H](C)O2)Oc2ccc(cc2Cl)[C@H]1O` [Vancomycin, vancomycin]?
MIC:MBC ([1]; S. dysgalactiae, MBC on one organism): >8; MIC ([1]; S. dysgalactiae MMX 5121): 0.25 µg/mL (≈ 0.173 µM); MIC ([1]; S. dysgalactiae MMX 5123): 0.25 µg/mL (≈ 0.173 µM); MIC ([1]; S. dysgalactiae MMX 5124): 0.25 µg/mL (≈ 0.173 µM); MIC ([1]; read-out: MIC (median), S. dysgalactiae, 3 isolates): 0.25 µg/mL (≈ 0.173 µM); Maximum reduction in MRSA biofilm titer relative to control ([2]; MBEC, 512 μg/ml): 1.1 log10 CFU/peg; Concentrations with statistically significant reduction versus control biofilm ([2]; MBEC, two-way ANOVA, Bonferroni): ≥ 16 µg/mL; Reduction in MRSA biofilm titer ([2]; plasma-supplemented MBEC assay, dose not stated): ~1 log10 CFU/peg; MIC ([3]; S. constellatus AGS, 1 isolate): 0.25 µg/mL (≈ 0.173 µM); MIC ([3]; Streptococcus constellatus): 0.25 µg/mL (≈ 0.173 µM); MIC ([4]; S. agalactiae MMX 4115, ermR): 0.25 µg/mL (≈ 0.173 µM); MIC ([4]; S. agalactiae ermR, 1 isolate): 0.25 µg/mL (≈ 0.173 µM); MIC:MBC ([4]; S. agalactiae, MBC on one organism): 4; MIC ([4]; Streptococcus agalactiae): 0.25 µg/mL (≈ 0.173 µM); MIC ([4]; Streptococcus agalactiae, ATCC13813): 0.25 µg/mL (≈ 0.173 µM); MIC ([4]; Streptococcus agalactiae, read-out: MIC (median)): 0.25 µg/mL (≈ 0.173 µM); MIC ([5]; S. pyogenes MMX 946, ermR): 0.25 µg/mL (≈ 0.173 µM); MIC:MBC ([5]; S. pyogenes ermR): 1; MIC ([5]; Streptococcus pyogenes): 0.25 µg/mL (≈ 0.173 µM); MIC ([5]; Streptococcus pyogenes, ATCC19615): 0.25 µg/mL (≈ 0.173 µM); MIC ([5]; Streptococcus pyogenes, read-out: MIC (median)): 0.25 µg/mL (≈ 0.173 µM); MIC ([6]; S. oralis MGS, 1 isolate): 0.5 µg/mL (≈ 0.345 µM); MIC ([6]; Streptococcus oralis): 0.5 µg/mL (≈ 0.345 µM); MIC:MBC ([7]; S. pneumoniae PISP, MBC on one organism): 8; MIC ([7]; S. pneumoniae PRSP, 1 isolate): 0.25 µg/mL (≈ 0.173 µM); MIC ([7]; Streptococcus pneumoniae): 0.12 µg/mL (≈ 0.0828 µM); MIC ([7]; Streptococcus pneumoniae, ATCC49619): 1 µg/mL (≈ 0.69 µM); MIC ([7]; Streptococcus pneumoniae, PRSP): 0.25 µg/mL (≈ 0.173 µM); MIC ([7]; Streptococcus pneumoniae, read-out: MIC (median)): 0.6 µg/mL (≈ 0.414 µM); MIC:MBC ([8]; S. mitis MGS, MBC on one organism): 1; MIC [8]: 0.25 µg/mL (≈ 0.173 µM); MIC ([8]; ATCC49456): 0.25 µg/mL (≈ 0.173 µM); MIC ([8]; read-out: MIC (median)): 0.25 µg/mL (≈ 0.173 µM); MIC [9]: 1 µg/mL (≈ 0.69 µM); MIC:MBC ([10]; S. aureus MRSA, MBC median of n = 5): 1; MIC:MBC ([10]; S. aureus MSSA, MBC on one organism): 1; MIC:MBC ([10]; S. aureus VISA, MBC median of n = 2): 4; MIC (median) ([10]; S. aureus VRSA, 12 isolates (JMI Laboratories)): >64 µg/mL; MIC:MBC ([10]; S. aureus hVISA, MBC on one organism): 1; MIC ([10]; ATCC13709 / MSSA, S. aureus ATCC 13709, MSSA): 1 µg/mL (≈ 0.69 µM); MIC ([10]; ATCC29213 / MSSA, S. aureus ATCC 29213, MSSA): 1 µg/mL (≈ 0.69 µM); MIC ([10]; ATCC43300 / MRSA, S. aureus ATCC 43300, MRSA): 1 µg/mL (≈ 0.69 µM); MIC ([10]; ATCCBAA1556|MRSA|USA300, S. aureus ATCC BAA-1556, MRSA, USA300 (expanded panel)): 0.5 µg/mL (≈ 0.345 µM); MIC ([10]; ATCCBAA1756|MRSA|NRS384|USA300, S. aureus NRS 384, ATCC BAA-1756, MRSA, USA300): 0.5 µg/mL (≈ 0.345 µM); MIC ([10]; MRSA / NRS123 / USA400, S. aureus NRS123, MRSA, USA400): 0.5 µg/mL (≈ 0.345 µM); MIC ([10]; MRSA / NRS725 / USA300, S. aureus NRS725, MRSA, USA300): 0.5 µg/mL (≈ 0.345 µM); MIC ([10]; MRSA / USA300, S. aureus MMX 3982, MRSA, USA300): 0.5 µg/mL (≈ 0.345 µM); MIC ([10]; MRSA, S. aureus MMX 7899, MRSA): 0.5 µg/mL (≈ 0.345 µM); MIC ([10]; MRSA, S. aureus MMX 7900, MRSA): 0.5 µg/mL (≈ 0.345 µM); MIC ([10]; MRSA, S. aureus MMX 7901, MRSA): 0.5 µg/mL (≈ 0.345 µM); MIC ([10]; MRSA, S. aureus MMX 7902, MRSA): 0.5 µg/mL (≈ 0.345 µM); MIC ([10]; MRSA, S. aureus MMX 7903, MRSA): 0.5 µg/mL (≈ 0.345 µM); MIC ([10]; MRSA, read-out: MIC (median), S. aureus MRSA, 12 isolates): 0.5 µg/mL (≈ 0.345 µM); MIC ([10]; MSSA, S. aureus MMX 7907, MSSA): 0.5 µg/mL (≈ 0.345 µM); MIC ([10]; MSSA, S. aureus MMX 7908, MSSA): 0.5 µg/mL (≈ 0.345 µM); MIC ([10]; MSSA, read-out: MIC (median), S. aureus MSSA, 4 isolates): 0.75 µg/mL (≈ 0.518 µM); MIC ([10]; NRS1 / VISA, S. aureus NRS1, VISA, Mu50): 4 µg/mL (≈ 2.76 µM); MIC ([10]; NRS2, S. aureus NRS2, hVISA;Mu3): 1 µg/mL (≈ 0.69 µM); MIC ([10]; NRS4 / VISA, S. aureus NRS4, VISA): 4 µg/mL (≈ 2.76 µM); MIC ([10]; NRS13 / VISA, S. aureus NRS13, VISA): 2 µg/mL (≈ 1.38 µM); MIC ([10]; NRS22 / VISA, S. aureus NRS22, VISA): 4 µg/mL (≈ 2.76 µM); MIC ([10]; NRS23, S. aureus NRS23, hVISA): 2 µg/mL (≈ 1.38 µM); MIC ([10]; NRS52 / VISA, S. aureus NRS52, VISA): 1 µg/mL (≈ 0.69 µM); MIC ([10]; VISA, read-out: MIC (median), S. aureus VISA, 5 isolates): 4 µg/mL (≈ 2.76 µM); MIC ([10]; VRSA, read-out: MIC (median), S. aureus VRSA, 12 isolates (JMI Laboratories)): > 64 µg/mL; MIC ([10]; read-out: MIC (median), S. aureus hVISA, 2 isolates): 1.5 µg/mL (≈ 1.04 µM); MIC:MBC ([11]; S. anginosus AGS): >8; MIC [11]: 0.5 µg/mL (≈ 0.345 µM); MIC ([11]; ATCC33397): 0.5 µg/mL (≈ 0.345 µM); MIC ([12]; ATCC6919): 0.25 µg/mL (≈ 0.173 µM); MIC ([12]; ATCC11827): 0.12 µg/mL (≈ 0.0828 µM); MIC ([12]; read-out: MIC (median)): 0.19 µg/mL (≈ 0.131 µM); MIC [13]: 0.5 µg/mL (≈ 0.345 µM); MIC ([13]; ATCC27844): 0.5 µg/mL (≈ 0.345 µM); MIC [14]: 0.25 µg/mL (≈ 0.173 µM); MIC ([14]; ATCC13124, read-out: MIC): 0.25 µg/mL (≈ 0.173 µM); Reduction in MRSA biofilm titer ([15]; >20 μg/ml dose): 3 log10 CFU/ml; Reduction in MRSA biofilm titer versus control ([15]; doses 1 to 10 μg/ml): approximately 2 log10 CFU/ml; Concentrations with statistically significant reduction versus control biofilm ([15]; two-way ANOVA, Bonferroni): ≥ 22 µg/mL; MIC:MBC ([16]; E. faecalis VSE, MBC on one organism): >8; MIC ([16]; E. faecalis VanA VRE, 1 isolate): 128 µg/mL (≈ 88.3 µM); MIC ([16]; Enterococcus faecalis): 1 µg/mL (≈ 0.69 µM); MIC ([16]; Enterococcus faecalis, ATCC29212): 2 µg/mL (≈ 1.38 µM); MIC ([16]; Enterococcus faecalis, VRE): 128 µg/mL (≈ 88.3 µM); MIC ([16]; Enterococcus faecalis, read-out: MIC (median)): 1.5 µg/mL (≈ 1.04 µM); half-life ([17]; male, Sprague Dawley, rat, in vivo, inhaled or intranasal, noncompartmental analysis, read-out: Lung t1/2 (converted)): 23 h; Kp ([17]; male, Sprague Dawley, rat, in vivo, inhaled or intranasal, read-out: Lung: Plasma Cmax ratio): 4; Cmax ([17]; male, Sprague Dawley, rat, in vivo, inhaled or intranasal, read-out: Plasma Cmax): 8000 ng/mL; Pulmonary dose ([17]; measured directly in lung tissue): 0.20 mg/kg; Lung AUC0-∞ [17]: 671 µg·h/g; Lung Cmax [17]: 31 µg/g; MIC [18]: 1 µg/mL (≈ 0.69 µM)
